# Patent US10597388B2, “Pyridazinone herbicides” (FMC CORPORATION, priority 2014, dated 2020)
# Experiments:
# Assay in all cases: Test D controlled growth environment herbicide test, pre- and postemergence
# Assay type in all cases: in vivo
# [1] = tested on: bromegrass, downy (downy bromegrass, Bromus tectorum)
# Outline: (§1)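 Species sown in silt loam and sprayed preemergence, or grown in peat-based medium to 2–18 cm (1- to 4-leaf stage) and sprayed postemergence, with compounds in non-phytotoxic solvent plus surfactant. Visual injury scored versus controls after 14–21 d in a controlled environment, 0 (no effect) to 100 (complete control).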
# [2] = tested on: buckwheat, wild (wild buckwheat, Polygonum convolvulus)
# Outline: as §1
# [3] = tested on: canarygrass (Phalaris minor)
# Outline: as §1
# [4] = tested on: chamomile (scentless chamomile, Matricaria inodora)
# Outline: as §1
# [5] = tested on: chickweed (common chickweed, Stellaria media)
# Outline: as §1
# [6] = tested on: deadnettle (henbit deadnettle, Lamium amplexicaule)
# Outline: as §1
# [7] = tested on: field violet (Viola arvensis)
# Outline: as §1
# [8] = tested on: foxtail, green (green foxtail, Setaria viridis)
# Outline: as §1
# [9] = tested on: galium (catchweed bedstraw, Galium aparine)
# Outline: as §1
# [10] = tested on: lambsquarters (Chenopodium album)
# Outline: as §1
# [11] = tested on: oilseed rape (Brassica napus)
# Outline: as §1
# [12] = tested on: ryegrass, Italian (Italian ryegrass, Lolium multiflorum)
# Outline: as §1
# [13] = tested on: wheat, winter (winter wheat, Triticum aestivum)
# Outline: as §1
# [14] = tested on: windgrass (Apera spica-venti)
# Outline: as §1
# [15] = Postemergence, 31 g ai/ha, scale 0 to 100 (0 no effect, 100 complete control)
# [16] = Postemergence, 125 g ai/ha, visual rating on scale 0 (no effect) to 100 (complete control), 14 to 21 d
# [17] = Postemergence, 250 g ai/ha, scale 0 to 100 (0 no effect, 100 complete control)
# [18] = Preemergence, 62 g ai/ha, scale 0 to 100 (0 no effect, 100 complete control)
# [19] = Preemergence, 125 g ai/ha, scale 0 to 100 (0 no effect, 100 complete control)
# [20] = Preemergence, 250 g ai/ha, scale 0 to 100, 0 no effect, 100 complete control
# [21] = postemergence, 62 g ai/ha, scale 0 to 100, 0 no effect, 100 complete control
smiles,measurement,setting,value
Cc1nn(C)c(=O)c(-c2cccc3ccc(Br)cc23)c1O [Compound 126],"Bromegrass, Downy plant response rating",[1]; [15],5
same,"Plant response rating, Bromegrass, Downy",[1]; [16],20
same,"Plant response rating, Bromegrass, Downy",[1]; [17],25
same,"Plant response rating (scale of 0 to 100), Bromegrass, Downy","[1]; Preemergence, 31 g ai/ha",0
same,"Plant response rating, Bromegrass, Downy",[1]; [18],0
same,"Plant response rating, Bromegrass, Downy",[1]; [19],20
same,"Plant response rating, Bromegrass, Downy",[1]; [20],30
same,"Plant response rating, Bromegrass, Downy",[1]; [21],10
same,"Buckwheat, Wild plant response rating",[2]; [15],70
same,"Plant response rating, Buckwheat, Wild",[2]; [16],100
same,"Plant response rating, Buckwheat, Wild",[2]; [17],100
same,"Plant response rating (scale of 0 to 100), Buckwheat, Wild","[2]; Preemergence, 31 g ai/ha",0
same,"Plant response rating, Buckwheat, Wild",[2]; [18],0
same,"Plant response rating, Buckwheat, Wild",[2]; [19],10
same,"Plant response rating, Buckwheat, Wild",[2]; [20],25
same,"Plant response rating, Buckwheat, Wild",[2]; [21],100
same,Canarygrass plant response rating,[3]; [15],20
same,"Plant response rating, Canarygrass",[3]; [16],45
same,"Plant response rating, Canarygrass",[3]; [17],75
same,"Plant response rating (scale of 0 to 100), Canarygrass","[3]; Preemergence, 31 g ai/ha",15
same,"Plant response rating (scale of 0 to 100), Canarygrass","[3]; Preemergence, 62 g ai/ha",50
same,"Plant response rating, Canarygrass",[3]; [19],80
same,"Plant response rating, Canarygrass",[3]; [20],90
same,"Plant response rating, Canarygrass",[3]; [21],35
same,Chamomile plant response rating,[4]; [15],70
same,"Plant response rating, Chamomile",[4]; [16],98
same,"Plant response rating, Chamomile",[4]; [17],100
same,"Plant response rating (scale of 0 to 100), Chamomile","[4]; Preemergence, 31 g ai/ha",85
same,"Plant response rating (scale of 0 to 100), Chamomile","[4]; Preemergence, 62 g ai/ha",100
same,"Plant response rating, Chamomile",[4]; [19],100
same,"Plant response rating, Chamomile",[4]; [20],100
same,"Plant response rating, Chamomile",[4]; [21],95
same,Chickweed plant response rating,[5]; [15],80
same,"Plant response rating, Chickweed",[5]; [16],100
same,"Plant response rating, Chickweed",[5]; [17],100
same,"Plant response rating (scale of 0 to 100), Chickweed","[5]; Preemergence, 31 g ai/ha",70
same,"Plant response rating (scale of 0 to 100), Chickweed","[5]; Preemergence, 62 g ai/ha",98
same,"Plant response rating, Chickweed",[5]; [19],100
same,"Plant response rating, Chickweed",[5]; [20],100
same,"Plant response rating, Chickweed",[5]; [21],98
same,Deadnettle plant response rating,[6]; [15],40
same,"Plant response rating, Deadnettle",[6]; [16],80
same,"Plant response rating, Deadnettle",[6]; [17],85
same,"Plant response rating (scale of 0 to 100), Deadnettle","[6]; Preemergence, 31 g ai/ha",0
same,"Plant response rating (scale of 0 to 100), Deadnettle","[6]; Preemergence, 62 g ai/ha",45
same,"Plant response rating, Deadnettle",[6]; [19],70
same,"Plant response rating, Deadnettle",[6]; [20],80
same,"Plant response rating, Deadnettle",[6]; [21],70
same,Field Violet plant response rating,[7]; [15],85
same,"Plant response rating, Field Violet",[7]; [16],90
same,"Plant response rating, Field Violet",[7]; [17],100
same,"Plant response rating (scale of 0 to 100), Field Violet","[7]; Preemergence, 31 g ai/ha",85
same,"Plant response rating (scale of 0 to 100), Field Violet","[7]; Preemergence, 62 g ai/ha",85
same,"Plant response rating, Field Violet",[7]; [19],100
same,"Plant response rating, Field Violet",[7]; [20],100
same,"Plant response rating, Field Violet",[7]; [21],85
same,"Foxtail, Green plant response rating",[8]; [15],10
same,"Plant response rating, Foxtail, Green",[8]; [16],25
same,"Plant response rating, Foxtail, Green",[8]; [17],25
same,"Plant response rating (scale of 0 to 100), Foxtail, Green","[8]; Preemergence, 31 g ai/ha",20
same,"Plant response rating (scale of 0 to 100), Foxtail, Green","[8]; Preemergence, 62 g ai/ha",20
same,"Plant response rating, Foxtail, Green",[8]; [19],25
same,"Plant response rating, Foxtail, Green",[8]; [20],45
same,"Plant response rating, Foxtail, Green",[8]; [21],10
same,Galium plant response rating,[9]; [15],90
same,"Plant response rating, Galium",[9]; [16],100
same,"Plant response rating, Galium",[9]; [17],100
same,"Plant response rating (scale of 0 to 100), Galium","[9]; Preemergence, 31 g ai/ha",50
same,"Plant response rating (scale of 0 to 100), Galium","[9]; Preemergence, 62 g ai/ha",70
same,"Plant response rating, Galium",[9]; [19],85
same,"Plant response rating, Galium",[9]; [20],98
same,"Plant response rating, Galium",[9]; [21],100
same,Lambsquarters plant response rating,[10]; [15],90
same,"Plant response rating, Lambsquarters",[10]; [16],100
same,"Plant response rating, Lambsquarters",[10]; [17],100
same,"Plant response rating (scale of 0 to 100), Lambsquarters","[10]; Preemergence, 31 g ai/ha",100
same,"Plant response rating (scale of 0 to 100), Lambsquarters","[10]; Preemergence, 62 g ai/ha",100
same,"Plant response rating, Lambsquarters",[10]; [19],75
same,"Plant response rating, Lambsquarters",[10]; [20],100
same,"Plant response rating, Lambsquarters",[10]; [21],98
same,Oilseed Rape plant response rating,[11]; [15],60
same,"Plant response rating, Oilseed Rape",[11]; [16],75
same,"Plant response rating, Oilseed Rape",[11]; [17],85
same,"Plant response rating (scale of 0 to 100), Oilseed Rape","[11]; Preemergence, 31 g ai/ha",0
same,"Plant response rating (scale of 0 to 100), Oilseed Rape","[11]; Preemergence, 62 g ai/ha",0
same,"Plant response rating, Oilseed Rape",[11]; [19],15
same,"Plant response rating, Oilseed Rape",[11]; [20],90
same,"Plant response rating, Oilseed Rape",[11]; [21],65
same,"Ryegrass, Italian plant response rating",[12]; [15],85
same,"Plant response rating, Ryegrass, Italian",[12]; [16],90
same,"Plant response rating, Ryegrass, Italian",[12]; [17],90
same,"Plant response rating (scale of 0 to 100), Ryegrass, Italian","[12]; Preemergence, 31 g ai/ha",75
same,"Plant response rating (scale of 0 to 100), Ryegrass, Italian","[12]; Preemergence, 62 g ai/ha",90
same,"Plant response rating, Ryegrass, Italian",[12]; [19],98
same,"Plant response rating, Ryegrass, Italian",[12]; [20],100
same,"Plant response rating, Ryegrass, Italian",[12]; [21],90
same,"Wheat, Winter plant response rating",[13]; [15],0
same,"Plant response rating, Wheat, Winter",[13]; [16],0
same,"Plant response rating, Wheat, Winter",[13]; [17],0
same,"Plant response rating (scale of 0 to 100), Wheat, Winter","[13]; Preemergence, 31 g ai/ha",0
same,"Plant response rating (scale of 0 to 100), Wheat, Winter","[13]; Preemergence, 62 g ai/ha",0
same,"Plant response rating, Wheat, Winter",[13]; [19],0
same,"Plant response rating, Wheat, Winter",[13]; [20],0
same,"Plant response rating, Wheat, Winter",[13]; [21],0
same,Windgrass plant response rating,[14]; [15],0
same,"Plant response rating, Windgrass",[14]; [16],30
same,"Plant response rating, Windgrass",[14]; [17],55
same,"Plant response rating (scale of 0 to 100), Windgrass","[14]; Preemergence, 31 g ai/ha",25
same,"Plant response rating (scale of 0 to 100), Windgrass","[14]; Preemergence, 62 g ai/ha",35
same,"Plant response rating, Windgrass",[14]; [19],75
same,"Plant response rating, Windgrass",[14]; [20],85
same,"Plant response rating, Windgrass",[14]; [21],20
